Reference: PMC7862291, “Full-length in meso structure and mechanism of rat kynurenine 3-monooxygenase inhibition” (Communications Biology, 2021)

Key:
[1] = biological target: T1, hKMO (Homo sapiens, UniProt O15229); test: Human KMO enzyme (cell-free) assay, NADPH consumption by absorbance; type: biochemical
T1 construct: purchased Origene
Procedure: (§1) Human KMO was purchased from Origene and used to assay compounds. Full-length Rat-KMO purified for crystallisation was used to assay compounds. Full-length Rat-KMO-expressing membranes were used for mutant assays (Fig. 4b) only. […] Images were taken using Odyssey CLX (LI-COR Biosciences) and quantified using ImageStudio2.0 (LI-COR Biosciences) software.
(§2) Test compounds were dissolved in DMSO and diluted with assay buffer containing 50 mM HEPES, 2 mM MgCl2, 0.5 mM EGTA, 1 mM DTT, 0.05% Tween20 and 0.005% of antiform SI (pH = about 7.9) to prepare a 4% DMSO solution. […] After 5 min of pre-incubation, reactions were started by adding 10 μL of substrate solution containing 2.4 mM kynurenine and 0.6 mM NADPH. Reactions were run for 90 min at 30 °C, then terminated by adding 5 μL of stop buffer (40 mM maleimide, 2 mM WST-9 and 0.1 mM 1-methoky PMS in water). […] Liposomal assays were performed in the same manner except that the composition of the assay buffer was changed (phosphate-buffered saline, 2 mM MgCl2, 1 mM DTT, 0.05% Tween 20).
(§3) Compound assays were analysed and plotted on graphs using Prism (GraphPad Software Inc. San Diego, CA, USA).

[2] = biological target: T2, HEK293 cells stably expressing human KMO (Homo sapiens, UniProt O15229); test: Cell-based human KMO inhibition assay (LC/MS of 3-hydroxykynurenine)
T2 construct: expressed in transfected cells
Procedure: (§4) HEK293 cells stably expressing human or rat KMO were maintained in DMEM containing 10% fetal bovine serum, 50 units/mL penicillin, 50 μg/mL streptomycin and 0.2 mg⁄mL zeocine. […] After 2 overnights, the medium was replaced with 10 μL/well of assay buffer (1 × HBSS containing 20 mM HEPES). Ten microliters per well of the diluted test compounds (final, 0–30 μM, 0.3% DMSO) were added to the respective wells. After ~30 min of pre-incubation at 37 °C, reactions were started by adding 20 μL of substrate solution containing 0.2 mM kynurenine. Reactions were run for 2 h at 37 °C, the assay buffer was discarded and the plate was immediately frozen and stored at −30 °C until LC/MS analysis.
(§5) An 80 µL volume of cold acetonitrile with 2% formic acid was added to the cell pellet in a 384-well plate and centrifuged at 3000 rpm for 10 min at 4 °C. A 40 µL volume of the supernatant was transferred to a new 384-well plate and evaporated to dryness under nitrogen gas at 45 °C. The residue was reconstituted in 100 µL of acetonitrile/water (10:90, v/v) with 0.1% formic acid, and 1 µL was injected into the LC-MS/MS system.
(§6) LC/MS/MS was performed on a Shimadzu UFLC Nexera X2 (Shimadzu Corporation, Japan) and an QTRAP® 5500 LC-MS/MS System (SCIEX, Framingham, USA). Chromatographic separation was performed using an Allure PFP Propyl analytical column (5 µm, 2.1 × 100 mm) maintained at 50 °C. The autosampler temperature was set at 15 °C. The mobile phase consisted of formic acid/water/acetonitrile/methanol (0.5/500/250/250, v/v/v/v) and the flow rate was set at 0.3 mL/min. 3-hydroxykynurenine was eluted from the LC column at a retention time of 1.2 min. The MS system was operated using electrospray ionization (ESI) in positive mode. The optimum conditions were curtain gas, 20 psi; ion spray voltage, 5500 V; heated nebulizer temperature (TEM), 700 °C; nebulizing gas (GS1), 70 psi; and heater gas (GS2), 70 psi. […] Analyst® software (SCIEX, Framingham, USA) was used for system control and MultiQuant™ Software (SCIEX, Framingham, USA) was used for data analysis.
as §3

[3] = biological target: T3, Rat KMO (Rattus norvegicus, UniProt O88867); test: Rat KMO enzyme (cell-free) assay, NADPH consumption by absorbance; type: biochemical
T3 construct: The GST-tagged full-length KMO (1-478) baculovirus vector contained a thrombin cleavage site; GST (thrombin cleavage site between GST and KMO) (N, cleaved yes); made in house; host or cells: Spodoptera frugiperda (Sf9), baculovirus
Procedure: as §1, §2, §3

[4] = biological target: T4, HEK293 cells stably expressing rat KMO (Rattus norvegicus, UniProt O88867); test: Cell-based rat KMO inhibition assay (LC/MS of 3-hydroxykynurenine)
T4 construct: expressed in transfected cells
Procedure: as §4, §5, §6, §3

T3 sequence (O88867 whole entry): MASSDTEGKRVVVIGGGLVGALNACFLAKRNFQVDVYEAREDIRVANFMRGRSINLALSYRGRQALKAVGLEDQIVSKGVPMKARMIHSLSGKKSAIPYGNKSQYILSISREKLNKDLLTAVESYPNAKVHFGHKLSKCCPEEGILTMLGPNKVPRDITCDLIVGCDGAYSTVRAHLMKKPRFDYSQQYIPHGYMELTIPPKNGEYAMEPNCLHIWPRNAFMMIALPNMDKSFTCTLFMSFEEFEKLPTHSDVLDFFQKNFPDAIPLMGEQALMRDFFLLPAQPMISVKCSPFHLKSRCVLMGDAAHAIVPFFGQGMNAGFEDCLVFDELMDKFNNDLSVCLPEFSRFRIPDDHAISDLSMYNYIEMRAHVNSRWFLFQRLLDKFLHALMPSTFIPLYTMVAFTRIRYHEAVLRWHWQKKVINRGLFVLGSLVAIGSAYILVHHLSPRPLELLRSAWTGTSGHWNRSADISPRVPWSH
T4 sequence (O88867 whole entry): as above
T1 sequence (O15229 whole entry): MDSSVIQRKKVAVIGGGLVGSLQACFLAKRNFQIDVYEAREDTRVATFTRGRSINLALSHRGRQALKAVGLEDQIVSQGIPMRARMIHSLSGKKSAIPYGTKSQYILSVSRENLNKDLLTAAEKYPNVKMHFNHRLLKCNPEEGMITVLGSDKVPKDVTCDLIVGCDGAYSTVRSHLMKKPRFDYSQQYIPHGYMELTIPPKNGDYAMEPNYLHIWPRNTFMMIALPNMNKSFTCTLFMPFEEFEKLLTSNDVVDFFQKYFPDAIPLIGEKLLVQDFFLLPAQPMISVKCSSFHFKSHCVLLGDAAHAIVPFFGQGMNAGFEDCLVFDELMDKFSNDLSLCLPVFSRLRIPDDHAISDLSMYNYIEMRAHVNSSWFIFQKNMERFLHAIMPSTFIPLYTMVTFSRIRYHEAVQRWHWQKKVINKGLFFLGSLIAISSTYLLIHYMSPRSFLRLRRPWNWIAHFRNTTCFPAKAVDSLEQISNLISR
T2 sequence (O15229 whole entry): as above

Q: Which IC50 ([1]; cell-free enzyme assay, high kynurenine, read-out: Human KMO IC50) does the source give for `Cc1cnn(-c2ccc(OCc3ccccc3)c(C(=O)O)c2)c1-c1ccc(Cl)c(F)c1` [Compound 3] here?
A: 3.8 nM

Q: And the “inhibition rate, Hs-KMO cell-free assay (Figure 1A source data)” value (shortened to “inhibition rate, Hs-KMO cell-free assay”) ([1]; conc 0.0003 μM, duplicates)?
A: 2.492%

Q: What about the inhibition at 0.0003 µM ([1]; conc 0.0003 μM, duplicates, read-out: inhibition rate, Hs-KMO cell-free assay (Figure 1A source data)) of the same compound?
A: 4.34%

Q: What about the “inhibition rate, Hs-KMO cell-free assay” value ([1]; conc 0.001 μM, duplicates) of the same compound?
A: 10.698%

Q: What about the inhibition at 0.001 µM ([1]; conc 0.001 μM, duplicates, read-out: inhibition rate, Hs-KMO cell-free assay (Figure 1A source data)) of the same compound?
A: 11%

Q: What about the “inhibition rate, Hs-KMO cell-free assay” value ([1]; conc 0.003 μM, duplicates) of the same compound?
A: 34.671%

Q: What about the inhibition at 0.003 µM ([1]; conc 0.003 μM, duplicates, read-out: inhibition rate, Hs-KMO cell-free assay (Figure 1A source data)) of the same compound?
A: 36%

Q: What about the “inhibition rate, Hs-KMO cell-free assay” value ([1]; conc 0.01 μM, duplicates) of the same compound?
A: 91.745%

Q: What about the inhibition at 0.01 µM ([1]; conc 0.01 μM, duplicates, read-out: inhibition rate, Hs-KMO cell-free assay (Figure 1A source data)) of the same compound?
A: 91.2%

Q: And the “inhibition rate, Hs-KMO cell-free assay” value ([1]; conc 0.03 μM, duplicates)?
A: 101.827%

Q: And the inhibition at 0.03 µM ([1]; conc 0.03 μM, duplicates, read-out: inhibition rate, Hs-KMO cell-free assay (Figure 1A source data))?
A: 102%

Q: And the “inhibition rate, Hs-KMO cell-free assay” value ([1]; conc 0.1 μM, duplicates)?
A: 97.991%

Q: What about the inhibition at 0.1 µM ([1]; conc 0.1 μM, duplicates, read-out: inhibition rate, Hs-KMO cell-free assay (Figure 1A source data)) of the same compound?
A: 98.8%

Q: And the “inhibition rate, Hs-KMO cell-free assay” value ([1]; conc 0.3 μM, duplicates)?
A: 101.967%

Q: What about the inhibition at 0.3 µM ([1]; conc 0.3 μM, duplicates, read-out: inhibition rate, Hs-KMO cell-free assay (Figure 1A source data)) of the same compound?
A: 103%

Q: And the “inhibition rate, Hs-KMO cell-free assay” value ([1]; conc 1 μM, duplicates)?
A: 95.974%

Q: What about the inhibition at 1 µM ([1]; conc 1 μM, duplicates, read-out: inhibition rate, Hs-KMO cell-free assay (Figure 1A source data)) of the same compound?
A: 103%

Q: What about the inhibition at 0.0003 µM ([2]; HEK293, conc 0.0003 μM, duplicates, read-out: inhibition rate, Hs-KMO cellular assay (Figure 1C source data)) of the same compound?
A: 6.79%

Q: What about the inhibition at 0.001 µM ([2]; HEK293, conc 0.001 μM, duplicates, read-out: inhibition rate, Hs-KMO cellular assay (Figure 1C source data)) of the same compound?
A: 11%

Q: And the inhibition at 0.003 µM ([2]; HEK293, conc 0.003 μM, duplicates, read-out: inhibition rate, Hs-KMO cellular assay (Figure 1C source data))?
A: 12.3%

Q: What about the inhibition at 0.01 µM ([2]; HEK293, conc 0.01 μM, duplicates, read-out: inhibition rate, Hs-KMO cellular assay (Figure 1C source data)) of the same compound?
A: 32.5%

Q: And the inhibition at 0.03 µM ([2]; HEK293, conc 0.03 μM, duplicates, read-out: inhibition rate, Hs-KMO cellular assay (Figure 1C source data))?
A: 100%

Q: What about the inhibition at 0.1 µM ([2]; HEK293, conc 0.1 μM, duplicates, read-out: inhibition rate, Hs-KMO cellular assay (Figure 1C source data)) of the same compound?
A: 104%

Q: And the inhibition at 0.3 µM ([2]; HEK293, conc 0.3 μM, duplicates, read-out: inhibition rate, Hs-KMO cellular assay (Figure 1C source data))?
A: 105%

Q: And the IC50 ([2]; HEK293 cells expressing human KMO, LC/MS, read-out: Human cell-based assay IC50)?
A: 12 nM

Q: What about the “inhibition rate, Hs-KMO cellular assay (Figure 1C source data)” value (“inhibition rate, Hs-KMO cellular assay” below) ([2]; conc 0.0003 μM, duplicates) of the same compound?
A: 4.270%

Q: What about the “inhibition rate, Hs-KMO cellular assay” value ([2]; conc 0.001 μM, duplicates) of the same compound?
A: 10.835%

Q: And the “inhibition rate, Hs-KMO cellular assay” value ([2]; conc 0.003 μM, duplicates)?
A: 13.039%

Q: What about the “inhibition rate, Hs-KMO cellular assay” value ([2]; conc 0.01 μM, duplicates) of the same compound?
A: 26.636%

Q: What about the “inhibition rate, Hs-KMO cellular assay” value ([2]; conc 0.03 μM, duplicates) of the same compound?
A: 98.487%

Q: And the “inhibition rate, Hs-KMO cellular assay” value ([2]; conc 0.1 μM, duplicates)?
A: 104.397%

Q: What about the IC50 ([3]; cell-free enzyme assay, high kynurenine) of the same compound?
A: 9 nM

Q: What about the “inhibition rate, Rat-KMO cell-free assay (Figure 1B source data)” value (shortened to “inhibition rate, Rat-KMO cell-free assay”) ([3]; conc 0.0003 μM, duplicates) of the same compound?
A: 0.623%

Q: And the inhibition at 0.0003 µM ([3]; conc 0.0003 μM, duplicates, read-out: inhibition rate, Rat-KMO cell-free assay (Figure 1B source data))?
A: 0.676%

Q: What about the “inhibition rate, Rat-KMO cell-free assay” value ([3]; conc 0.001 μM, duplicates) of the same compound?
A: 5.077%

Q: What about the inhibition at 0.001 µM ([3]; conc 0.001 μM, duplicates, read-out: inhibition rate, Rat-KMO cell-free assay (Figure 1B source data)) of the same compound?
A: 6.43%

Q: What about the “inhibition rate, Rat-KMO cell-free assay” value ([3]; conc 0.003 μM, duplicates) of the same compound?
A: 23.289%

Q: And the inhibition at 0.003 µM ([3]; conc 0.003 μM, duplicates, read-out: inhibition rate, Rat-KMO cell-free assay (Figure 1B source data))?
A: 23.8%

Q: And the “inhibition rate, Rat-KMO cell-free assay” value ([3]; conc 0.01 μM, duplicates)?
A: 55.764%

Q: And the inhibition at 0.01 µM ([3]; conc 0.01 μM, duplicates, read-out: inhibition rate, Rat-KMO cell-free assay (Figure 1B source data))?
A: 56.6%

Q: And the “inhibition rate, Rat-KMO cell-free assay” value ([3]; conc 0.03 μM, duplicates)?
A: 81.294%

Q: What about the inhibition at 0.03 µM ([3]; conc 0.03 μM, duplicates, read-out: inhibition rate, Rat-KMO cell-free assay (Figure 1B source data)) of the same compound?
A: 81.3%

Q: And the “inhibition rate, Rat-KMO cell-free assay” value ([3]; conc 0.1 μM, duplicates)?
A: 84.395%

Q: And the inhibition at 0.1 µM ([3]; conc 0.1 μM, duplicates, read-out: inhibition rate, Rat-KMO cell-free assay (Figure 1B source data))?
A: 83.1%

Q: What about the “inhibition rate, Rat-KMO cell-free assay” value ([3]; conc 0.3 μM, duplicates) of the same compound?
A: 91.102%

Q: What about the inhibition at 0.3 µM ([3]; conc 0.3 μM, duplicates, read-out: inhibition rate, Rat-KMO cell-free assay (Figure 1B source data)) of the same compound?
A: 92.2%

Q: And the “inhibition rate, Rat-KMO cell-free assay” value ([3]; conc 1 μM, duplicates)?
A: 84.342%

Q: And the inhibition at 1 µM ([3]; conc 1 μM, duplicates, read-out: inhibition rate, Rat-KMO cell-free assay (Figure 1B source data))?
A: 88.8%

Q: What about the inhibition at 0.3 µM ([4]; HEK293, conc 0.3 μM, duplicates, read-out: inhibition rate, Rat-KMO cellular assay (Figure 1D source data)) of the same compound?
A: 62%

Q: And the inhibition at 1 µM ([4]; HEK293, conc 1 μM, duplicates, read-out: inhibition rate, Rat-KMO cellular assay (Figure 1D source data))?
A: 91.7%

Q: What about the inhibition at 3 µM ([4]; HEK293, conc 3 μM, duplicates, read-out: inhibition rate, Rat-KMO cellular assay (Figure 1D source data)) of the same compound?
A: 97.7%

Q: What about the inhibition at 10 µM ([4]; HEK293, conc 10 μM, duplicates, read-out: inhibition rate, Rat-KMO cellular assay (Figure 1D source data)) of the same compound?
A: 100%

Q: What about the inhibition at 30 µM ([4]; HEK293, conc 30 μM, duplicates, read-out: inhibition rate, Rat-KMO cellular assay (Figure 1D source data)) of the same compound?
A: 100%

Q: What about the IC50 ([4]; HEK293 cells expressing rat KMO, LC/MS) of the same compound?
A: 240 nM

Q: What about the “inhibition rate, Rat-KMO cellular assay (Figure 1D source data)” value (“inhibition rate, Rat-KMO cellular assay” for short) ([4]; conc 0.3 μM, duplicates) of the same compound?
A: 48.933%

Q: What about the “inhibition rate, Rat-KMO cellular assay” value ([4]; conc 1 μM, duplicates) of the same compound?
A: 83.933%

Q: And the “inhibition rate, Rat-KMO cellular assay” value ([4]; conc 3 μM, duplicates)?
A: 95.840%

Q: And the “inhibition rate, Rat-KMO cellular assay” value ([4]; conc 10 μM, duplicates)?
A: 99.692%

Q: And the “inhibition rate, Rat-KMO cellular assay” value ([4]; conc 30 μM, duplicates)?
A: 100.882%
